Tests used:
Conditions in all cases: 72 h
[1] = system: Caco-2; experiment: cell viability relative to DMSO; higher = less toxic
[2] = system: Calu-3; experiment: as above
[3] = system: HepG2; experiment: as above
[4] = system: U2OS; experiment: as above
[5] = system: Caco-2; experiment: drug sensitivity score (DSS) for viability; higher = more toxic; extreme values may be limits of the assay
[6] = system: Calu-3; experiment: as above
[7] = system: HepG2; experiment: as above
[8] = system: U2OS; experiment: as above
[9] = system: Caco-2; experiment: relative viability EC50 (midpoint between 100% and the lowest measured viability); higher = less toxic
[10] = system: Calu-3; experiment: as above
[11] = system: HepG2; experiment: as above
[12] = system: U2OS; experiment: as above
[13] = system: Vero E6; experiment: cell viability relative to DMSO; higher = less toxic
[14] = system: Vero E6; experiment: drug sensitivity score (DSS) for viability; higher = more toxic; extreme values may be limits of the assay
[15] = system: Vero E6; experiment: relative viability EC50 (midpoint between 100% and the lowest measured viability); higher = less toxic

| Compound | cell viability ([1]; 1 nM) [%] | cell viability ([1]; 10 nM) [%] | cell viability ([1]; 100 nM) [%] | cell viability ([1]; 1000 nM) [%] | cell viability ([1]; 10000 nM) [%] | cell viability ([2]; 1 nM) [%] | cell viability ([2]; 10 nM) [%] | cell viability ([2]; 100 nM) [%] | cell viability ([2]; 1000 nM) [%] | cell viability ([2]; 10000 nM) [%] | cell viability ([3]; 1 nM) [%] | cell viability ([3]; 10 nM) [%] | cell viability ([3]; 100 nM) [%] | cell viability ([3]; 1000 nM) [%] | cell viability ([3]; 10000 nM) [%] | cell viability ([4]; 1 nM) [%] | cell viability ([4]; 10 nM) [%] | cell viability ([4]; 100 nM) [%] | cell viability ([4]; 1000 nM) [%] | cell viability ([4]; 10000 nM) [%] | drug sensitivity score [5] | drug sensitivity score [6] | drug sensitivity score [7] | drug sensitivity score [8] | relative viability EC50 [9] [µM] | relative viability EC50 [10] [µM] | relative viability EC50 [11] [µM] | relative viability EC50 [12] [µM] | cell viability ([13]; 1 nM) [%] | cell viability ([13]; 10 nM) [%] | cell viability ([13]; 100 nM) [%] | cell viability ([13]; 1000 nM) [%] | cell viability ([13]; 10000 nM) [%] | drug sensitivity score [14] | relative viability EC50 [15] [µM] |
| --- | --- | --- | --- | --- | --- | --- | --- | --- | --- | --- | --- | --- | --- | --- | --- | --- | --- | --- | --- | --- | --- | --- | --- | --- | --- | --- | --- | --- | --- | --- | --- | --- | --- | --- | --- |
| CCOCCn1c(C2CCN(CCc3ccc(C(C)(C)C(=O)O)cc3)CC2)nc2ccccc21 [bilastine] | 102 | 87.5 | 85.6 | 92.5 | 87.8 | 98.1 | 106 | 93.5 | 97.8 | 99.5 | 94.3 | 96 | 104 | 97.6 | 100 | 96.6 | 98.2 | 103 | 103 | 95.7 | 3.1 | 0 | 0 | 0 | > 10 | > 10 | > 10 | > 10 | – | – | – | – | – | – | – |
| O=c1ccc2ccc(OCCCCN3CCN(c4cccc5sccc45)CC3)cc2[nH]1 [brexpiprazole] | 91.7 | 96.7 | 87.3 | 98.1 | 87.5 | 95.5 | 85 | 96 | 91.6 | 104 | 100 | 96.3 | 96 | 92 | 56.8 | 97.6 | 99 | 95.6 | 101 | 86.6 | 0 | 0 | 3.5 | 0.1 | > 10 | > 10 | – | > 10 | 99.1 | 97.5 | 94.5 | 94.5 | 94.3 | 0 | > 10 |
| CN(C)C(=O)COC(=O)Cc1ccc(OC(=O)c2ccc(NC(=N)N)cc2)cc1 [camostat-mesilate] | 102 | 98.9 | 104 | 105 | 108 | 100 | 106 | 98.2 | 110 | 103 | – | – | – | – | – | 97.8 | 102 | 94.2 | 104 | 102 | 0 | 0 | – | 0 | > 10 | > 10 | – | > 10 | 110 | 99.7 | 101 | 103 | 106 | 0 | > 10 |
| Nc1ccncc1 [dalfampridine] | 102 | 108 | 99.1 | 106 | 96 | 102 | 104 | 90.9 | 99 | 100 | – | – | – | – | – | – | – | – | – | – | 0 | 0 | – | – | > 10 | > 10 | – | – | 107 | 102 | 101 | 101 | 98.9 | 0 | > 10 |
| CN(C)CCOC(c1ccccc1)c1ccccc1 [diphenhydramine] | 100 | 93.9 | 96.1 | 91.8 | 128 | 97.5 | 104 | 114 | 112 | 105 | 97.8 | 93.3 | 95.3 | 103 | 84.4 | 102 | 103 | 104 | 96.5 | 102 | 0 | 0 | 0.2 | 0 | > 10 | > 10 | > 10 | > 10 | – | – | – | – | – | – | – |
| COC(=O)/C=C/C(=O)OCCN1C(=O)CCC1=O [diroximel-fumarate] | 109 | 104 | 107 | 97.6 | 92.4 | 112 | 112 | 120 | 92.5 | 123 | 103 | 115 | 87.7 | 115 | 52.1 | 101 | 101 | 105 | 103 | 98.9 | 0 | 0 | 1.8 | 0 | > 10 | > 10 | – | > 10 | 98.4 | 102 | 92.2 | 99 | 106 | 0 | > 10 |
| CC1=C(CC(=O)O)c2cc(F)ccc2/C1=C\c1ccc(S(C)(=O)=O)cc1 [exisulind] | 96.4 | 104 | 91.6 | 84.6 | 94.8 | 95.6 | 102 | 103 | 97.6 | 112 | 106 | 95.3 | 95.4 | 96.7 | 74.8 | 103 | 94.7 | 100 | 97.5 | 100 | 2.2 | 0 | 1.5 | 0 | > 10 | > 10 | – | > 10 | 104 | 96.2 | 87.8 | 110 | 94.8 | 0 | > 10 |
| CC(C(=O)O)c1cccc(Oc2ccccc2)c1 (configuration not stated) [fenoprofen] | 98.4 | 93.5 | 98.7 | 101 | 108 | 98.1 | 112 | 111 | 103 | 103 | – | – | – | – | – | 96.7 | 99.9 | 97.5 | 103 | 105 | 0 | 0 | – | 0 | > 10 | > 10 | – | > 10 | 101 | 94 | 95.3 | 88.7 | 112 | 0 | > 10 |
| Oc1cc(O)c(Cl)cn1 [gimeracil] | 97.8 | 92.7 | 97.7 | 95.8 | 98.1 | 107 | 105 | 104 | 98.3 | 92.4 | 105 | 106 | 98.3 | 96.2 | 87.2 | 100 | 100 | 104 | 98.5 | 104 | 0 | 0 | 0.2 | 0 | > 10 | > 10 | > 10 | > 10 | – | – | – | – | – | – | – |
| Cc1ccnc2c1CCCC2C(N)=S (configuration not stated) [isotiquimide] | 106 | 102 | 99.9 | 96 | 110 | 95.1 | 86.7 | 98.1 | 107 | 106 | 103 | 100 | 92.4 | 99.4 | 98.6 | 102 | 97.4 | 100 | 101 | 102 | 0 | 0 | 0 | 0 | > 10 | > 10 | > 10 | > 10 | – | – | – | – | – | – | – |
| NCCCC[C@H](N[C@@H](CCc1ccccc1)C(=O)O)C(=O)N1CCC[C@H]1C(=O)O [lisinopril] | – | – | – | – | – | 109 | 94.7 | 110 | 98.8 | 93.4 | – | – | – | – | – | 102 | 95.7 | 95 | 97 | 97.2 | – | 0 | – | 0 | – | > 10 | – | > 10 | 104 | 105 | 102 | 101 | 99.2 | 0 | > 10 |
| CCCN1C[C@H](CSC)C[C@@H]2c3cccc4[nH]cc(c34)C[C@H]21 [pergolide] | 93.2 | 93 | 99.5 | 96.4 | 100 | 89.8 | 105 | 104 | 99.7 | 101 | – | – | – | – | – | 97.3 | 102 | 100 | 102 | 97.3 | 0 | 0 | – | 0 | > 10 | > 10 | – | > 10 | 95.9 | 96.5 | 95.6 | 90 | 96.4 | 0 | > 10 |
| CCn1cc(C(=O)O)c(=O)c2cnc(N3CCNCC3)nc21 [pipemidic-acid] | 94.2 | 102 | 95.5 | 99.4 | 92.9 | 107 | 99.1 | 103 | 96.9 | 91.9 | 110 | 108 | 107 | 99.8 | 102 | 98.7 | 101 | 97.4 | 104 | 100 | 0 | 0 | 0 | 0 | > 10 | > 10 | > 10 | > 10 | – | – | – | – | – | – | – |
| O=C(O)CCC(=O)Nc1ccc(S(=O)(=O)Nc2nccs2)cc1 [succinylsulfathiazole] | 93.9 | 100 | 89.6 | 104 | 102 | 94 | 96.2 | 96.1 | 112 | 108 | – | – | – | – | – | 95.3 | 100 | 95.7 | 99.9 | 104 | 0 | 0 | – | 0 | > 10 | > 10 | – | > 10 | 97.8 | 97.3 | 98.7 | 92.1 | 112 | 0 | > 10 |
| O=C(O)c1ccc2nc(-c3cc(Cl)cc(Cl)c3)oc2c1 [tafamidis-meglumine] | 103 | 88 | 102 | 90.2 | 103 | 97.6 | 95.8 | 94.7 | 93.1 | 99.2 | 103 | 102 | 99.5 | 99.6 | 96 | 100 | 101 | 101 | 97.6 | 100 | 0 | 0 | 0 | 0 | > 10 | > 10 | > 10 | > 10 | – | – | – | – | – | – | – |
| Cc1cccc(C)c1NC(=O)[C@@H](C)N [tocainide] | 96.8 | 95.8 | 97.5 | 101 | 95.5 | 105 | 92.3 | 90 | 108 | 103 | 107 | 102 | 91.5 | 94.2 | 95.3 | 100 | 102 | 99.2 | 104 | 98.5 | 0 | 0 | 0 | 0 | > 10 | > 10 | > 10 | > 10 | – | – | – | – | – | – | – |

Source: the supplement of paper PMC13380429
